Data on two compounds can be found in patent US20040097573A1, “Use of a COX-2 inhibitor and a NK-1 receptor antagonist for treating inflammation” (priority 1998, published 2004).

Assay [1] has as its system foot tapping in gerbils induced by central infusion of NK-1 receptor agonists such as GR73632. In words: Gerbil foot-tapping (Assay 2). In kind it is in vivo, Mongolian gerbils. The conditions noted are these: i.v. The text has this: ASSAY 2: Gerbil Foot-Tapping
CNS-penetrant NK-1 receptor antagonists for use in the present invention can be identified by their ability to inhibit foot tapping in gerbils induced by central infusion of NK-1 receptor agonists such as GR73632, based on the method of Rupniak & Williams, Eur. J. Pharmacol., 1994, 265, 179.
Male or female Mongolian gerbils (35-70 g) are anaesthetised by inhalation of an isoflurane/oxygen mixture to permit exposure of the jugular vein in order to permit administration of test compounds or vehicle in an injection volume of approximately 5 ml/kg i.v. Alternatively, test compounds may be administered orally or by subcutaneous or intraperitoneal routes. A skin incision is then made in the midline of the scalp to expose the skull. The selective NK-1 receptor agonist (e.g. GR73632 (d Ala[L-Pro^9,Me-Leu^10]-substance P-(7-11)) is infused directly into the cerebral ventricles (e.g. 3 pmol in 5 μl i.c.v., depending on test substance) by vertical insertion of a cuffed 27 gauge needle to a depth of 4.5 mm below bregma. The scalp incision is closed and the animal allowed to recover from anaesthesia in a clear perspex observation box (approximately 25 cm×20 cm×20 cm). The duration and/or intensity of hind foot tapping is then recorded continuously for approximately 5 minutes.

Assay [2] deals with cisplatin-induced emesis in ferrets. In words: Ferret emesis (Assay 3). Type of assay: in vivo. The conditions noted are these: p.o. As for the experimental part:
ASSAY 3: Ferret Emesis Individually housed male ferrets (1.0-2.5 kg) are dosed orally by gavage with test compound. Ten minutes later they are fed with approximately 100 g of tinned cat food. At 60 minutes following oral dosing, cisplatin (10 mg/kg) is given i.v. via a jugular vein catheter inserted under a brief period of halothane anaesthesia. The catheter is then removed, the jugular vein ligated and the skin incision closed. The ferrets recover rapidly from the anaesthetic and are mobile within 10-20 minutes. The animals are observed continuously during recovery from the anaesthetic and for 4 hours following the cisplatin injection, after which time the animals are killed humanely. The numbers of retches and vomits occurring during the 4 hours after cisplatin administration are recorded by trained observers.

For the compound `C[C@@H](O[C@H]1OCCN(Cc2n[nH]c(=O)[nH]2)[C@H]1c1ccc(F)cc1)c1cc(C(F)(F)F)cc(C(F)(F)F)c1` [2-(R)-(1-(R)-(3,5-bis(trifluoromethyl)phenyl)-ethoxy)-3-(S)-(4-fluorophenyl)-4-(3-(5-oxo-1H,4H-1,2,4-triazolo)methyl)-morpholine], in assay [1], the “gerbil foot-tapping (5 mins.) ID50” value was “ID50 = 0.36 mg/kg i.v” and the “gerbil foot-tapping (24 hrs.) ID50” value was “ID50 = 0.33 mg/kg i.v”. Besides, the “ferret emesis ID90” value in assay [2] is recorded as “ID90 < 3 mg/kg p.o”.

Take `C[C@@H](O[C@H]1OCCN(Cc2nn[nH]c2CN(C)C)[C@H]1c1ccccc1)c1cc(C(F)(F)F)cc(C(F)(F)F)c1` [2-(R)-(1-(R)-(3,5-bis(trifluoromethyl)phenyl)ethoxy)-4-(5-(N,N-dimethylamino)methyl-1,2,3-triazol-4-yl)methyl-3-(S)-phenylmorpholine]: in assay [1], the “gerbil foot-tapping (5 mins.) ID50” value is “ID50 = 0.12 mg/kg i.v” and the “gerbil foot-tapping (24 hrs.) ID50” value is on record as “ID50 = 0.17 mg/kg i.v”.
